Assay [1] deals with Ba/F3_Del19/T790M/C797S cells. Briefly: Ba/F3_Del19/T790M/C797S cell proliferation inhibition assay (CellTiter-Glo). The class given is cell-based. Summed up: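 IC50 for growth inhibition came from CellTiter-Glo chemiluminescence after a 72 h, 37° C compound exposure. Ba/F3_Del19/T790M/C797S cells were plated at 700/well, and compound was dosed in gradient with 0.1% final DMSO.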

In assay [2] the test system is Ba/F3_L858R/T790M/C797S cells. Briefly: Ba/F3_L858R/T790M/C797S cell proliferation inhibition assay (CellTiter-Glo). The class given is cell-based. The method, boiled down: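 Proliferation IC50 derived from CellTiter-Glo luminescence in Ba/F3 cells expressing triple-mutant EGFR (L858R/T790M/C797S). Cells (700/well) incubated 72 h with graded compound doses at 0.1% DMSO final, 37 °C, 5% CO2; reagent developed 30 min at room temperature in the dark.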
In general terms: Cellular ATP, detected with luciferase, serves as a proxy for viable cell number.

Assay [3] deals with EGFR L858R/T790M/C797S (Homo sapiens (Human), UniProt P00533, C797S/L858R/T790M). The assay can be described thus: In vitro enzymatic TR-FRET (HTRF KinEASE-TK) kinase assay, EGFR L858R/T790M/C797S. In kind it is biochemical. The note with it: kinase activity. As to the method: (I) In Vitro Enzymatic Experiment for EGFR WT and EGFR L858R/T790M/C797S
EGFR L858R/T790M/C797S, sequence (P00533 25-1210 T790M/C797S/L858R): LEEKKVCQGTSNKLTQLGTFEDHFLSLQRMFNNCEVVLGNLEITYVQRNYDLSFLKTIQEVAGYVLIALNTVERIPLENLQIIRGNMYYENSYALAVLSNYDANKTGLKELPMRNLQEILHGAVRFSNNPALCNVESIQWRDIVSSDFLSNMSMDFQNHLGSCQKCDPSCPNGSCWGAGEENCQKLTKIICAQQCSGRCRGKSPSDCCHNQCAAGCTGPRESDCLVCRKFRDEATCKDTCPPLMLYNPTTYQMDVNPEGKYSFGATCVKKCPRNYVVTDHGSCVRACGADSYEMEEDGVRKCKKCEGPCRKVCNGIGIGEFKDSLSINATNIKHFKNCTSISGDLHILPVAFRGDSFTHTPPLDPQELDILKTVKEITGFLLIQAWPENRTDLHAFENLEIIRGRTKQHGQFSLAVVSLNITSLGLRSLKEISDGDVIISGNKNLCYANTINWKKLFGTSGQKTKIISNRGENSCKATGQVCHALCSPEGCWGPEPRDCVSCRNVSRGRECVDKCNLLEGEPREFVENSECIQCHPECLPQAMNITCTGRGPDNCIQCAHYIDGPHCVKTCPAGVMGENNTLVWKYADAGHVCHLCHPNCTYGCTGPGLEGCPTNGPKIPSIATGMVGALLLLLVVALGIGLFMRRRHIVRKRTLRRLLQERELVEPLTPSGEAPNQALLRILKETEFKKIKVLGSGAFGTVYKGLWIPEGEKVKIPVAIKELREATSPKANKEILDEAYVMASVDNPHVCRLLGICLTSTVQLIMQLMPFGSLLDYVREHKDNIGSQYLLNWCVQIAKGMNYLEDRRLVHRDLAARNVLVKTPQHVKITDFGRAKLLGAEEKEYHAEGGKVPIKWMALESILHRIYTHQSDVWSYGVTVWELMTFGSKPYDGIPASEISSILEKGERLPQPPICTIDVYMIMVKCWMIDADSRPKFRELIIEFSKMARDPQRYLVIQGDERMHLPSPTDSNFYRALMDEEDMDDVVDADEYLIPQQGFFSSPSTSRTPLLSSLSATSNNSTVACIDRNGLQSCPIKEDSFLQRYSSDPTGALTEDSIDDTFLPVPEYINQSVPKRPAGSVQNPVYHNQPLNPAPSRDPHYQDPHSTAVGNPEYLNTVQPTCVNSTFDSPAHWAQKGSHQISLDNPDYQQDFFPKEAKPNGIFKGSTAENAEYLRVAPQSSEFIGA
In the assay, the inhibition effect of the compound on the kinase activity of EGFR WT (wild type EGFR) and EGFR L858R/T790M/C797S was tested by adopting a time-resolved fluorescence resonance energy transfer (TR-FRET) method, and half maximal inhibitory concentration IC50 of the compound on the kinase activity of EGFR was obtained.
EGFR recombinase and EGFR L858R/T790M/C797S recombinase, purchased from Signalchem.
HTRF KinEASE-TK kit, purchased from Cisbio.
DTT, MnCl2, and MgCl2, purchased from Sigma.
ATP, purchased from Promega.
Brigatinib, purchased from Selleck.
1) 1× working solution was prepared: 5 mM MgCl2; 1 mM DTT; 1 mM MnCl2 and 1× kinase buffer (in kit).
2) […] of gradiently-diluted compound was transferred to a 384-well plate using Echo 550 (Labcyte).
3) 5 μL of 2× EGFR WT or EGFR L858R/T790M/C797S recombinase solution was added to the 384-well plate, and the plate was incubated at room temperature for 10 min.
4) 5 μL of 2× TK-substrate-biotin substrate solution (containing ATP) was added to the 384-well plate, and the plate was incubated at room temperature for 40 min.
5) 5 μL of assay solution containing Sa-XL 665 HTRF and 5 μL of TK-antibody-Cryptatewas were added to the plate, and the plate was incubated at room temperature for 1 h.
6) The fluorescence signal values at 615 nm and 665 nm were measured for each well using an Envision microplate reader (PerkinElmer).
7) The ratio of fluorescence signal values at 665 nm and 615 nm was calculated for each well.
8) Data analysis was performed using GraphPad Prism software to give the IC50 for compounds.

Assay [4] has as its system A431 cells (EGFR WT). The assay can be described thus: A431 cell proliferation inhibition assay (CellTiter-Glo). In kind it is cell-based. Summed up: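 CellTiter-Glo luminescence quantified growth after 72 h treatment with serially diluted compounds (final DMSO 0.1%), following a 24 h attachment period at 37° C, 5% CO2. Signal read after 30 min dark incubation at room temperature, with half-maximal growth inhibition reported as IC50.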

Assay [5] deals with EGFR WT (wild type EGFR) (Homo sapiens (Human), UniProt P00533). Briefly: In vitro enzymatic TR-FRET (HTRF KinEASE-TK) kinase assay, EGFR WT. In kind it is biochemical. The method, boiled down: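 IC50 derived from the 665/615 nm TR-FRET ratio after 1 h with streptavidin-XL665 and Cryptate-labelled TK antibody. Kinase reaction ran 40 min at room temperature with biotin-TK substrate and ATP, following 10 min compound–enzyme preincubation. Buffer: 5 mM MgCl2, 1 mM MnCl2, 1 mM DTT.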
EGFR WT (wild type EGFR), sequence (P00533 25-1210): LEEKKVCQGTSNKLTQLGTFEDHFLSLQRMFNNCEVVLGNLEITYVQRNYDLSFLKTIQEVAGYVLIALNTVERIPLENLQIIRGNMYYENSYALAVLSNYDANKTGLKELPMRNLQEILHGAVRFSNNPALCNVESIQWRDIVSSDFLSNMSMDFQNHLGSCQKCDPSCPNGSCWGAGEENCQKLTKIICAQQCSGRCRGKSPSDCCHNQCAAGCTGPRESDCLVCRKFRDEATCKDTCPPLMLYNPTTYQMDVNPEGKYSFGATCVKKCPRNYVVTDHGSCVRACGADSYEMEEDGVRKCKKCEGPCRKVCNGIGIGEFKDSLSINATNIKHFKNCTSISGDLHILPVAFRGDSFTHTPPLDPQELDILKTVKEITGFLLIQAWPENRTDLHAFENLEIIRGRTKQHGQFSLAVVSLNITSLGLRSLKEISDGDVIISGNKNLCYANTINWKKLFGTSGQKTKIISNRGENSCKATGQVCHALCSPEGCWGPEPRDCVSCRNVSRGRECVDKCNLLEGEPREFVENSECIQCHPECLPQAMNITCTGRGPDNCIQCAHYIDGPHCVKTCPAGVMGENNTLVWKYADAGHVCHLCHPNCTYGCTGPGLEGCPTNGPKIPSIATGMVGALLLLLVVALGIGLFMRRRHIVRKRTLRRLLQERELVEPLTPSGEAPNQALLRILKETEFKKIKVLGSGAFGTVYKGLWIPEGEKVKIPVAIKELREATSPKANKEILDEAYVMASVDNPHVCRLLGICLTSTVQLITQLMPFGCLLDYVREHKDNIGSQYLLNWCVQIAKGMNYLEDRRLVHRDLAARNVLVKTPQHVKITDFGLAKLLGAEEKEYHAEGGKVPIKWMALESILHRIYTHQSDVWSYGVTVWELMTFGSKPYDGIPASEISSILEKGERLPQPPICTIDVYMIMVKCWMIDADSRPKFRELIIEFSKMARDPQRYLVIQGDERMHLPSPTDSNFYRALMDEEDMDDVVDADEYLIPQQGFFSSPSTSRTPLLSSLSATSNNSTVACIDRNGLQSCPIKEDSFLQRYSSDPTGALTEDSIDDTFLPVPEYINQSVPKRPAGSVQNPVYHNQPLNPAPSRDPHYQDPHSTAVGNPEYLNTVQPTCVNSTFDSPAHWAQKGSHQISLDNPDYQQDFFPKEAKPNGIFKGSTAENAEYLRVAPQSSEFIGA

Setting [6] is: Mus musculus, BaF3, cell proliferation, 72 h, CellTiter-Glo, read-out: Ba/F3 (Del19/T790M/C797S) IC50.
The mark [7] stands for this setting: Mus musculus, BaF3, cell proliferation, 72 h, CellTiter-Glo, read-out: Ba/F3 (L858R/T790M/C797S) IC50.
Setting [8] is: Homo sapiens, A-431, cell proliferation, 72 h, CellTiter-Glo, read-out: A431 EGFR WT IC50.
The mark [9] stands for this setting: kinase activity, TR-FRET, read-out: EGFR (WT) IC50.
[10] abbreviates: Mus musculus, BaF3, 72 h, read-out: Ba/F3 (Del19/T790M/C797S) IC50(nM).
[11] abbreviates: Mus musculus, BaF3, 72 h, read-out: Ba/F3 (L858R/T790M/C797S) IC50(nM).
The mark [12] stands for this setting: Homo sapiens, A-431, 72 h, read-out: A431 EGFR WT IC50(nM).

Read-outs that look alike come from different tables or passages of the source.

Take `COc1nc2c(cc1Nc1ncc(Br)c(Nc3ccc4nccnc4c3P(C)(C)=O)n1)-c1cnn(C)c1CCN2C` [Compound 80]: the IC50 in assay [1] (setting [6]) is below 10 nM; in assay [2] (setting [7]) it was below 10 nM; in assay [3], below 1 nM; in assay [4] (setting [8]), 100 to 1000 nM; in assay [5] (setting [9]) it was 1 to 10 nM.
With `COc1cc2c(cc1Nc1ncc(Br)c(Nc3ccc4nccnc4c3C(N)=O)n1)-c1cnn(C)c1CCN2C(C)C` [Compound 115], the IC50 was below 10 nM in assay [1] (setting [6]), 10 to 50 nM in assay [2] (setting [7]), 1 to 10 nM in assay [3] and above 1000 nM in assay [4] (setting [8]).
In the case of `COc1cc2c(cc1Nc1ncc(Br)c(Nc3ccc4nccnc4c3P3(=O)CCN(C)CC3)n1)-c1cnn(C)c1CCN2C(C)C` [Compound 91], the IC50 is below 10 nM in assay [1] (setting [6]); 10 to 50 nM in assay [2] (setting [7]); below 1 nM in assay [3]; 100 to 1000 nM in assay [4] (setting [8]); below 1 nM in assay [5] (setting [9]).
With `COc1nc2c(cc1Nc1ncc(Br)c(Nc3ccc4nccnc4c3P(C)(C)=O)n1)-c1cnn(C)c1CCN2C(C)C` [Compound 82], the IC50 was 10 to 50 nM in assay [1] (setting [10]); 10 to 50 nM in assay [2] (setting [11]); 1 to 10 nM in assay [3]; above 1000 nM in assay [4] (setting [12]); 1 to 10 nM in assay [5] (setting [9]).
Take `COc1cc2c(cc1Nc1ncc(Br)c(Nc3ccccc3P(C)(C)=O)n1)-c1cn(C3COC3)nc1CCN2C(C)C` [Compound 77B]: the IC50 in assay [1] (cell proliferation, 72 h, CellTiter-Glo, read-out: Ba/F3 (Del19/T790M/C797S) IC50) was in the range of 50 to 100 nM; in assay [2] (cell proliferation, 72 h, CellTiter-Glo, read-out: Ba/F3 (L858R/T790M/C797S) IC50) it was 50 to 100 nM; in assay [3] it was 1 to 10 nM; in assay [4] (cell proliferation, 72 h, CellTiter-Glo, read-out: A431 EGFR WT IC50), 100 to 1000 nM; in assay [5] (setting [9]), 100 to 1000 nM.
For `COc1cc2c(cc1Nc1ncc(Cl)c(Nc3cccnc3P(C)(C)=O)n1)-c1cnn(C)c1CCN2C(C)C` [Compound 100], the IC50 in assay [1] (setting [6]) was 10 to 50 nM; in assay [2] (setting [7]), 10 to 50 nM; in assay [4] (setting [8]) it was 100 to 1000 nM; in assay [5] (setting [9]), 1 to 10 nM.
In the case of `COc1cc2c(cc1Nc1ncc(Br)c(Nc3ccccc3P(C)(C)=S)n1)-c1cnn(C)c1CCN2C1CCN(C(C)C)CC1` [Compound 105], the IC50 in assay [1] (setting [10]) is below 10 nM; in assay [2] (setting [11]) it was 10 to 50 nM; in assay [4] (setting [12]) it was 100 to 1000 nM; in assay [5], 1 to 10 nM.
As to `COc1cc2c(cc1Nc1ncc(Br)c(Nc3ccccc3P(C)(C)=O)n1)-c1cnn(C)c1CNC2` [Compound 49], the IC50 was 10 to 50 nM in assay [1] (setting [6]), 10 to 50 nM in assay [2] (setting [7]), 100 to 1000 nM in assay [4] (setting [8]) and 10 to 50 nM in assay [5] (setting [9]).
For the compound `COc1cc2c(cc1Nc1ncc(Br)c(Nc3ccc4nccnc4c3CNS(C)(=O)=O)n1)-c1cnn(C)c1CCN2C(C)C` [Compound 137], the IC50 in assay [1] (setting [6]) is 10 to 50 nM; in assay [2] (setting [7]), 10 to 50 nM; in assay [4] (setting [8]), 100 to 1000 nM; in assay [5] (setting [9]), 1 to 10 nM.
`CCN1CCc2c(cnn2C)-c2cc(Nc3ncc(Br)c(Nc4ccccc4P(C)(C)=O)n3)c(OC)cc21` [Compound 20]: the IC50 in assay [1] (setting [6]) was below 10 nM; in assay [2] (setting [7]) it was below 10 nM; in assay [4] (setting [8]), 100 to 1000 nM; in assay [5] (setting [9]) it was 1 to 10 nM.
For `COc1cc2c(cc1Nc1ncc(C)c(Nc3ccc4nccnc4c3NS(C)(=O)=O)n1)-c1cnn(C)c1CCN2C(C)C` [Compound 104], the IC50 in assay [1] (setting [6]) was below 10 nM; in assay [2] (setting [7]) it was below 10 nM; in assay [4] (setting [8]), 100 to 1000 nM; in assay [5] (setting [9]) it was 1 to 10 nM.
Turning to `COc1cc2c(cc1Nc1ncc(Br)c(Nc3ccccc3P(C)(C)=O)n1)-c1cn(CCN(C)C)nc1CCN2C(C)C` [Compound 56], the IC50 in assay [1] (setting [10]) is below 10 nM; in assay [2] (setting [11]), 10 to 50 nM; in assay [4] (setting [12]) it was 100 to 1000 nM; in assay [5] (setting [9]), 1 to 10 nM.
Turning to `COc1cc2c(cc1Nc1ncc(Br)c(Nc3ccc4nccnc4c3N(C)S(C)(=O)=O)n1)-c1cnn(C)c1CCN2C(C)C` [Compound 131], the IC50 in assay [1] (setting [6]) was 10 to 50 nM; in assay [2] (setting [7]) it was 10 to 50 nM; in assay [4] (setting [8]) it was above 1000 nM; in assay [5] (setting [9]), 1 to 10 nM.

The values above are taken from patent publication US20240034743A9, “TRICYCLIC COMPOUNDS AS EGFR INHIBITORS” (QILU PHARMACEUTICAL CO., LTD., priority 2020, published 2024).
